Data set [1] is described as follows: in vitro. As to conditions: human.
Experimental: (§1) MCF7 breast cancer cell lines and MCF10A normal breast cancer cell lines were treated with serial dilutions of the compounds of the present invention ranging from 1 µM to 15.63 nM for 72 hours. Cell viability was measured by the WST-8 assay (Cyto XTM cell viability assay kit; LPS solution, Daejeon, Korea) according to the manufacturer's instructions.
Data set [2] addresses T1, Recombinant GST-TAG-MASTL (Homo sapiens, UniProt Q96GX5).
T1 construct: GST; purchased Thermo Fisher Scientific
T1 sequence (Q96GX5 1-879): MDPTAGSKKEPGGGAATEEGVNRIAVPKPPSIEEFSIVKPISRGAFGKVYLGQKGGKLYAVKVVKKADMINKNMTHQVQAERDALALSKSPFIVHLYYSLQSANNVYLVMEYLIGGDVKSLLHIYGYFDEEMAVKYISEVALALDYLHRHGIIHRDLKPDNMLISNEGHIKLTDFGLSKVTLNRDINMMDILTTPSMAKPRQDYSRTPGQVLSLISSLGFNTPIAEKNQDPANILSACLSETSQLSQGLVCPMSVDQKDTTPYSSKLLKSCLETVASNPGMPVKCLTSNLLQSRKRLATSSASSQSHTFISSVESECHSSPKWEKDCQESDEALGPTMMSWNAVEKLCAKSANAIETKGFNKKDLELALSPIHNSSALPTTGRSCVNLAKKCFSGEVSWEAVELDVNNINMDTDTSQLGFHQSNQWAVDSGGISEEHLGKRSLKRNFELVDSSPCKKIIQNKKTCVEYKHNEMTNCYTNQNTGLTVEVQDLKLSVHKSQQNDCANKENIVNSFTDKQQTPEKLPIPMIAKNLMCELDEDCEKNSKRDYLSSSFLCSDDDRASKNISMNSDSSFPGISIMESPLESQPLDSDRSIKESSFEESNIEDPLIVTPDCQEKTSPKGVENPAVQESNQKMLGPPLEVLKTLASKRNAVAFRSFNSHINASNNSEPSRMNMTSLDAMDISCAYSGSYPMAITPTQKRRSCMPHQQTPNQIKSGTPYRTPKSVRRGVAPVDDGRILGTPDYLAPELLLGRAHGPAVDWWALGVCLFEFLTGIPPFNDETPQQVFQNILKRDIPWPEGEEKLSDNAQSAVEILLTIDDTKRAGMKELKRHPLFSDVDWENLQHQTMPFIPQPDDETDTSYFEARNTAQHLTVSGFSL
Nature of the data set: HTRF-based kinase assay (HTRF KinEASE assay kit). It is filed as biochemical. As to conditions: for activity at 1 µM: read-out: MASTL activity (%) HTRF (1 µM). The text has this:
Recombinant GST-TAG-MASTL (Thermo Fisher Scientific, MA, USA) was used for HTRF-based kinase assays. The HTRF KinEASE assay kit (CisBio, MA, USA) was used according to the manufacturer's instructions.
For orientation: In TR-FRET formats the signal depends on donor and acceptor labels being close together.

Data set [3] has as its system MCF7 breast cancer cell lines. Kind of data set: Cell viability analysis, WST-8 assay, MCF7. As to conditions: Homo sapiens, MCF7, 72 h; for viability at 1.25 µM: read-out: Cell viability (%) WST-8, MCF7, footnote a: concentration 1.25 µM, 72 hours; for viability at 1 µM: read-out: Cell viability (%) WST-8, MCF7 (1 µM), compound 1 µM, 72 hours.
Experimental: as §1
Data set [4] deals with pENSA. Nature of the data set: pENSA level by immunofluorescence (described method: in vitro kinase analysis with GST-tag-MASTL and His-tag-ENSA). It is filed as cell-based. As to conditions: for pENSA (%) Immunofluor ecense (1 µM): compound 1 µM. Summed up: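 In vitro kinase reaction using recombinant GST-tagged MASTL with His-tagged ENSA as substrate; phosphorylated ENSA (pENSA) serves as read-out of MASTL activity. Cell lines named: MCF7 breast cancer and MCF10A.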

The test system of data set [5] is MCF10A normal breast cell lines. Kind of data set: Cell viability analysis, WST-8 assay, MCF10A. As to conditions: Homo sapiens, MCF-10A, 72 h.
Experimental: as §1
[6] abbreviates: HTRF, unit µM, read-out: IC50 MASTL activity.
Where [7] appears, read: footnote b: concentration 10 µM, read-out: MASTL activity (%) HTRF.
Where [8] appears, read: read-out: IC50 Cell viability (MCF7).
[9] abbreviates: read-out: IC50 Cell viability (MCF10A).
Setting [10] is: HTRF, read-out: IC50(nM) MASTL activity.
The mark [11] stands for this setting: read-out: IC50(nM) Cell viability (MCF10A).
The mark [12] stands for this setting: read-out: IC50(nM) Cell viability (MCF7).

What is called IC50 is the midpoint of a concentration-inhibition curve.

Molecules are shown by their SMILES. Read-outs that look alike come from different tables or passages of the source.

Regarding `c1ccc2c(Nc3cc(C4CC4)[nH]n3)nc(N3CCNCC3)nc2c1` [compound 11, M-(5-cyclopropyl-1G-pyrazol-3-yl)-2-(piperazin-1-yl)quinazolin-4-amine], the viability at 1.25 µM in data set [1] (mcf10a cells) is 98%; in data set [3], 104%. The IC50 in data set [2] (setting [6]) is 1 µM; in data set [3] (setting [8]), 3200 nM; in data set [5] (setting [9]) it was 4100 nM. In data set [2] (setting [7]), the activity at 10 µM came out at 18.1%. Moreover, in data set [4], the “pENSA (%) Immunofluor ecense (1 µM)” value is 66.4%.

For the compound `COc1ccc(CNc2nc(Nc3cc(C4CC4)[nH]n3)c3ccccc3n2)cc1` [compound 4cd, N^4-(5-cyclopropyl-1H-pyrazol-3-yl)-N^2-(4-methoxybenzyl)quinazoline-2,4-diamine], the figures for the viability at 1.25 µM in data set [1] and in data set [3] were 83.9% and 83.8%, respectively. Besides, the IC50 is 0.476 µM in data set [2] (setting [10]), 2600 nM in data set [3] (setting [8]), 543 nM in data set [4] (read-out: IC50(nM) pENSA) and 2700 nM in data set [5] (setting [9]). For the same compound, in data set [2] (setting [7]), the activity at 10 µM is 20.3%.

For `O=S(=O)(NCCO)c1ccc(Nc2nc(Nc3cc(C4CC4)[nH]n3)c3ccccc3n2)cc1` [compound 4i, 4-((4-((5-cyclopropyl-1G-pyrazol-3-yl)amino)quinazolin-2-yl)amino)-M-(2-hydroxyethyl)benzenesulfonamide], the viability at 1.25 µM in data set [1] (mcf10a cells) came out at 5.8%; in data set [3], 45.9%. For the same compound, the half-inhibitory concentration (IC50) was found to be 1.2 µM in data set [2], 1100 nM in data set [3] (setting [8]), 378 nM in data set [4] (read-out: IC50(nM) pENSA) and 132 nM in data set [5] (setting [11]). Moreover, the activity at 10 µM in data set [2] (read-out: MASTL activity (%) HTRF) stood at 8.7%. Also, the “pENSA (%) Immunofluor ecense (1 µM)” value in data set [4] was determined as 16%.

Turning to `c1ccc2c(Nc3cc(C4CC4)[nH]n3)nc(N3CC4CC3CN4)nc2c1` (stereo not drawn) [compound 14, 2-(2,5-diazabicyclo[2.2.1]heptan-2-yl)-M-(5-cyclopropyl-1G-pyrazol-3-yl)quinazolin-4-amine Trifluoroacetic acid], the viability at 1 µM in data set [1] (mcf10a cells) came out at 63.4%; in data set [3] it was 21.8%. Moreover, the IC50 in data set [2] is 0.593 µM; in data set [3] (setting [12]), 647 nM; in data set [4] (read-out: IC50(nM) pENSA) it was 645 nM; in data set [5] (setting [9]), 1700 nM. For the same compound, the activity at 1 µM in data set [2] came out at 25.5%. The “pENSA (%) Immunofluor ecense (1 µM)” value in data set [4] is recorded as 9.2%.

Turning to `CN1CCN(c2nc(Nc3cc(C4CC4)[nH]n3)c3ccccc3n2)CC1` [compound 12a, M-(5-cyclopropyl-1G-pyrazol-3-yl)-2-(4-methylpiperazin-1-yl)quinazolin-4-amine], the viability at 1.25 µM stood at 82.3% in data set [1] (mcf10a cells) and 26.2% in data set [3]. In data set [2] (setting [7]), the activity at 10 µM was 26.3%. The IC50 in data set [3] (setting [12]) is 697 nM; in data set [4] (unit µM, read-out: IC50 pENSA), 1100 nM; in data set [5] (setting [9]) it was 2400 nM. Besides, the “pENSA (%) Immunofluor ecense (1 µM)” value in data set [4] came to 63.8%.

Regarding `CC(C)(C)OC(=O)N1CC2CC1CN2c1nc(Nc2cc(C3CC3)[nH]n2)c2ccccc2n1` (stereo not drawn) [compound 13, sdqs-butyl 5-(4-((5-cyclopropyl-1G-pyrazol-3-yl)amino)quinazolin-2-yl)-2,5-diazabicyclo[2.2.1]heptane-2-carboxylate], the viability at 1.25 µM in data set [1] (mcf10a cells) is 15.9%; in data set [3] it was 62%. Also, the figures for the IC50 in data set [2] (setting [6]), in data set [3] (setting [12]) and in data set [5] (setting [11]) were 1 µM, 932 nM and 316 nM, respectively. Besides, the activity at 1.25 µM in data set [2] (footnote a: concentration 1.25 µM, read-out: MASTL activity (%) HTRF) is 53.8%. Moreover, in data set [4], the “pENSA (%) Immunofluor ecense (1 µM)” value was determined as 90%.

In the case of `O=S(=O)(c1ccc(F)cc1F)N1CC2CC1CN2c1nc(Nc2cc(C3CC3)[nH]n2)c2ccccc2n1` (stereo not drawn) [compound 15o, M-(5-cyclopropyl-1G-pyrazol-3-yl)-2-(5-((2,4-difluorophenyl)sulfonyl)-2,5-diazabicyclo[2.2.1]heptan-2-yl)quinazolin-4-amine], the viability at 1.1 µM in data set [1] (mcf10a cells) was 92.6%; in data set [3] (read-out: Cell viability (%) WST-8, MCF7, footnote d: concentration 1.1 µM, 72 hours), 119%. Moreover, the values for the IC50 in data set [2] (setting [10]), in data set [3] (setting [8]) and in data set [5] (setting [9]) were 0.17 µM, 3700 nM and 2400 nM, respectively. Besides, the activity at 1 µM in data set [2] (compound 1 µM) came out at 20.3%. Moreover, in data set [4], the “pENSA (%) Immunofluor ecense (1 µM)” value amounted to 90.3%.

On to `c1ccc2c(Nc3cc(C4CC4)[nH]n3)nc(Nc3cc(C4CC4)[nH]n3)nc2c1` [compound 4n, M^2,M^4-bis(5-cyclopropyl-1G-pyrazol-3-yl)quinazoline-2,4-diamine], for which the values for the viability at 1 µM in data set [1] (mcf10a cells) and in data set [3] were 3.2% and 21.5%, respectively. Further, in data set [2] (compound 1 µM), the activity at 1 µM turned out to be 106%. Moreover, the IC50 in data set [3] (setting [12]) was 287 nM; in data set [5] (setting [11]), 116 nM. Besides, the “pENSA (%) Immunofluor ecense (1 µM)” value in data set [4] is given as 92.8%.

As for `c1ccc2c(Nc3cc(C4CC4)[nH]n3)nc(N3CCC4(CC3)OCCO4)nc2c1` [compound 6a, M-(5-cyclopropyl-1G-pyrazol-3-yl)-2-(1,4-dioxa-8-azaspiro[4.5]decan-8-yl)quinazolin-4-amine], the viability at 1 µM turned out to be 20.9% in data set [1] (mcf10a cells) and 13.2% in data set [3]. Also, the IC50 in data set [2] (setting [10]) is 0.34 µM; in data set [3] (setting [12]), 499 nM; in data set [4] (read-out: IC50(nM) pENSA), 532 nM; in data set [5] (setting [11]), 392 nM. For the same compound, the activity at 1 µM in data set [2] (compound 1 µM) was 15.2%. In data set [4], the “pENSA (%) Immunofluor ecense (1 µM)” value is reported as 10.1%.

As to `Nc1nc(Nc2cc(C3CC3)[nH]n2)c2ccccc2n1` [compound 4ca, N^4-(5-cyclopropyl-1H-pyrazol-3-yl)quinazoline-2,4-diamine], the results for the viability at 1.25 µM in data set [1] and in data set [3] were 99.1% and 43%, respectively. The IC50 is 1.8 µM in data set [2] (setting [6]), 1700 nM in data set [3] (setting [8]) and 2800 nM in data set [5] (setting [9]). In addition, the activity at 10 µM in data set [2] (setting [7]) was determined as 37.4%.

`CS(=O)(=O)Cc1ccc(Nc2nc(Nc3cc(C4CC4)[nH]n3)c3ccccc3n2)cc1` [compound 4f, M^4-(5-cyclopropyl-1G-pyrazol-3-yl)-M^2-(4-((methylsulfonyl)methyl)phenyl)quinazoline-2,4-diamine]: the viability at 1.25 µM in data set [1] (mcf10a cells) was 33%; in data set [3] it was 94.5%. Further, the activity at 10 µM in data set [2] (setting [7]) amounted to 29%. Moreover, the IC50 in data set [3] (setting [8]) worked out at 2300 nM; in data set [4] (read-out: IC50(nM) pENSA), 899 nM. Besides, in data set [4], the “pENSA (%) Immunofluor ecense (1 µM)” value came to 50.5%.

On to `CC(C)C(=O)N1CC2CC1CN2c1nc(Nc2cn[nH]c2)c2ccccc2n1` (stereo not drawn) [compound 28c, 1-(5-(4-((1G-pyrazol-4-yl)amino)quinazolin-2-yl)-2,5-diazabicyclo[2.2.1]heptan-2-yl)-2-methylpropan-1-one], for which the viability at 1 µM in data set [1] (mcf10a cells) is 85.3%; in data set [3] it was 105%. In addition, the activity at 1 µM in data set [2] (compound 1 µM) amounted to 117%. In data set [4], the “pENSA (%) Immunofluor ecense (1 µM)” value is given as 80.0%.

Take `C1=C(c2cccc3ccccc23)CCN(c2nc(Nc3cc(C4CC4)[nH]n3)c3ccccc3n2)C1` [compound 6i, M-(5-cyclopropyl-1G-pyrazol-3-yl)-2-(4-(naphthalen-1-yl)-3,6-dihydropyridin-1(2G)-yl)quinazolin-4-amine]: the viability at 1 µM in data set [1] (mcf10a cells) came to 122%; in data set [3], 113%. For the same compound, in data set [2] (compound 1 µM), the activity at 1 µM worked out at 74.6%. Also, in data set [4], the “pENSA (%) Immunofluor ecense (1 µM)” value is given as 97.2%.

`CC(C)(C)OC(=O)N1C2CCC1CN(c1nc(Nc3cc(C4CC4)[nH]n3)c3ccccc3n1)C2` [19' (B), sdqs-butyl 3-(4-((5-cyclopropyl-1G-pyrazol-3-yl)amino)quinazolin-2-yl)-3,8-diazabicyclo[3.2.1]octane-8-carboxylate]: the values for the viability at 1 µM in data set [1] (mcf10a cells) and in data set [3] were 101% and 74.8%, respectively. For the same compound, the IC50 in data set [2] (setting [10]) was 0.282 µM. In addition, the activity at 1 µM in data set [2] (compound 1 µM) is 32.2%. Further, the “pENSA (%) Immunofluor ecense (1 µM)” value in data set [4] was 74.7%.

The values are drawn from patent publication EP4786466A1, “QUINAZOLINE DERIVATIVE, SALT THEREOF, AND PHARMACEUTICAL COMPOSITION COMPRISING SAME AS ACTIVE INGREDIENT” (Korea Research Institute of Chemical Technology, priority 2023, dated 2025).
